Laboratory results: paper PMC4125160, “Neurotoxicity and Mode of Action of N, N-Diethyl-Meta-Toluamide (DEET)” (PLoS ONE, 2014)
≈ marks a conversion by molar mass, not a printed value.

Tests used:
[1] = tested on: Anopheles gambiae AKRON (pyrethroid and anticholinesterase resistance); assay: WHO filter paper contact toxicity bioassay; format: in vivo; details: WHO filter paper assay, 1 h exposure, mortality at 24 h, read-out: LC50 (95% CI)
Description: Contact toxicity bioassays were performed on both strains of Anopheles gambiae, G3 (susceptible) and AKRON (pyrethroid and anticholinesterase resistance) according to WHO protocol. Adult female mosquitoes were 2–5 days of age and non-blood fed at the time of experimentation. Five concentrations of inhibitor dissolved in ethanol were prepared and treated by applying 2 mL of each concentration on a 180 cm^2 (12 cm×15 cm) paper. Papers were left to dry for 24 hours prior to use. Mosquitoes were chilled for three minutes on ice, after which 25 females were placed in the WHO kit holding chamber to recover for one hour. Mosquitoes were then moved to the treatment chamber, which contain the treated paper, and exposed for one hour. After the one-hour exposure, the mosquitoes were transferred back to the holding chamber and maintained on 10% sugar solution for 24 hrs. Each concentration was repeated in triplicate. […] Three LC50 values were obtained and the mean LC50 value was used for statistical analysis.
(§1) For all toxicity assays, control mortality was corrected for using Abbots formula [19]; where corrected percent mortality = (% alive in control–% alive in treated) /% alive in control.

A. gambiae (AKRON) = assay: Topical toxicity bioassay on adult females; format: in vivo, Anopheles gambiae
Description: (§2) Topical toxicity bioassays on adult female mosquitoes were performed based on the method of Pridgeon et al.. Briefly, insects were chilled on ice for 3 min, during which the appropriate volume (200 nL for mosquitoes, 1 µL for Musca) of chemical (dissolved in 95% ethanol) was applied onto the abdomen using a handheld Hamilton microapplicator. For each inhibitor, five doses were applied to groups of ten insects each and repeated three times. An ethanol-only treatment was included in each experiment as a negative control. Insects were transferred into a holding chamber post-treatment and supplied with free access to sugar water for the duration of the experiment. […] Three LD50 values were obtained and the mean LD50 value was calculated and used for statistical analysis.
as §1

A. gambiae (G3) = assay: Topical toxicity bioassay on adult females; format: in vivo, Anopheles gambiae; details: topical application, ng of compound/mg of mosquito weight, 24 hr
Description: as §2, §1

[2] = tested on: sodium channels in neonatal rat cortical neurons; assay: Patch clamp of rat cortical neurons, sodium currents; format: cell-based
Description: Rat cortical neurons (purchased from Lonza, Walkersville, MD, USA) were placed on poly-lysine coated glass cover slips in 35 mm dishes, and cultured in primary neuron basal medium with added 2% neural grown factor and 1% glutamine (from Lonza). The medium was half changed every 3 days, and the cells were used at 6–12 days. The neurons had dendrites and axons and the diameters of the somata were about 15–20 µm. Cells were cultured on cover slips and were immersed in 35 mm Petri dishes filled with room temperature extracellular saline. Patch pipettes were pulled from borosilicate glass capillaries with filament (BF150-86-10, Sutter Instrument, Novato CA, USA) on a P-1000 Flaming/Brown micropipette puller (Sutter Instrument). Extracellular solution was the same regardless of the target ion channel and contained: 140 mM NaCl, 5 mM KCl, 2 mM MgCl2, 2 mM CaCl2, 10 mM glucose, and 10 mM HEPES (pH = 7.4). Intracellular patch solution for potassium channel recordings consisted of: 140 mM KF, 10 mM NaCl, 2 mM MgCl2, and 10 mM HEPES (pH = 7.2). Intracellular patch solution for sodium channel recordings consisted of: 140 mM CsCH3SO3 10 mM NaCl, 2 mM MgCl2, 10 mM HEPES (pH = 7.2), where CsCH3SO3 was used to eliminate potassium currents during sodium channel analysis. The patch electrodes had resistances of 5–7 MOhms.
Patch clamp recordings were performed with a 40x/0.80W water immersion objective (working distance 3.5 mm) using a forced-air-cooled Photometrics Evolve 512/CCD97 camera system. Following gigaseal formation, the membrane was ruptured through a brief, manual suction of the electrode, or by a 2 msec long zap pulse. Currents were amplified with the use of a patch-clamp amplifier (Axopatch 200B, Molecular Devices LLC, Sunnyvale, CA, USA) and processed for analysis via A/D-converter (Digidata 1440A, Molecular Devices LLC). Recordings underwent series resistance compensation, low-pass filtering at 1 kHz, and were sampled at 10 kHz or 100 kHz for potassium and sodium currents, respectively. For recording and analyzing data, pClamp 10.0 software (Molecular Devices LLC) was used.

**Q.** What does the source list for `CCN(CC)C(=O)c1cccc(C)c1` [DEET, N, N-diethyl-meta-toluamide]?
**A.** LC50 [1]: 2700 µg/mL (≈ 14.1 mM); LD50 (+PBO) (95% CI) (A. gambiae (AKRON); topical application after 4 hr pretreatment with 200 ng PBO): 1247 (872–1526)a ng/ml; LD50 (95% CI) (A. gambiae (AKRON); topical application, ng of compound/mg of mosquito weight, 24 hr): 1472 (1136–1806)b ng/mg; LD50 (95% CI) (A. gambiae (G3)): 1175 (988–1361)a ng/mg; block of inward sodium currents in words ([2]; 1 mM): completely blocked; sodium current amplitude restored by washout ([2]; after 1 mM block): approximately 50%; IC50 ([2]; read-out: IC50 against sodium channels): ~700 µM
